Measured values published in PubChem BioAssay (NCI).
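Growth conditions: 96-well plates. Treatment: test compound, 48 hours, 5 concentrations. Analysis: linear interpolation between bracketing concentrations; unreached endpoints set to highest concentration. Abbreviation: GI50, concentration required for 50% inhibition of growth. TGI denotes the concentration required for complete inhibition of growth.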

Legend:
Experiment in all cases: NCI-60 cell line screen, 48 h
ACHN renal = test system: ACHN renal
MALME-3M melanoma = test system: MALME-3M melanoma
OVCAR-5 ovarian = test system: OVCAR-5 ovarian
SF-539 CNS = test system: SF-539 CNS
SK-MEL-28 melanoma = test system: SK-MEL-28 melanoma
SK-OV-3 ovarian = test system: SK-OV-3 ovarian
SR leukemia = test system: SR leukemia
SW-620 colon = test system: SW-620 colon
UACC-257 melanoma = test system: UACC-257 melanoma
UACC-62 melanoma = test system: UACC-62 melanoma

| SMILES | TGI (ACHN renal) [µM] | TGI (MALME-3M melanoma) [µM] | TGI (OVCAR-5 ovarian) [µM] | TGI (SF-539 CNS) [µM] | TGI (SK-MEL-28 melanoma) [µM] | TGI (SK-OV-3 ovarian) [µM] | TGI (SR leukemia) [µM] | TGI (SW-620 colon) [µM] | TGI (UACC-257 melanoma) [µM] | TGI (UACC-62 melanoma) [µM] | GI50 (ACHN renal) [µM] | GI50 (MALME-3M melanoma) [µM] | GI50 (OVCAR-5 ovarian) [µM] | GI50 (SF-539 CNS) [µM] | GI50 (SK-MEL-28 melanoma) [µM] | GI50 (SK-OV-3 ovarian) [µM] | GI50 (SR leukemia) [µM] | GI50 (SW-620 colon) [µM] | GI50 (UACC-257 melanoma) [µM] | GI50 (UACC-62 melanoma) [µM] |
| --- | --- | --- | --- | --- | --- | --- | --- | --- | --- | --- | --- | --- | --- | --- | --- | --- | --- | --- | --- | --- |
| O=C(O)c1nnsc1COCc1ccccc1 | > 100 | > 100 | > 100 | > 100 | > 100 | > 100 | > 100 | > 100 | > 100 | > 100 |  |  |  |  |  |  |  |  |  |  |
| CCOC(OC1=C(C#N)CCC1)C(CC)[Se]c1ccccc1 (stereo unspecified) | 81.9 | 66.7 | 54.8 | 37.6 | 90.4 | > 100 | 31.1 |  | > 100 | 61.9 |  |  |  |  |  |  |  |  |  |  |
| c1cncc(C2c3[nH]c4ccccc4c3CCN2CCN2CCCCC2)c1 (stereo unspecified) | > 100 |  | > 100 | > 100 | > 100 | > 100 | > 100 | > 100 | 99.4 | > 100 |  |  |  |  |  |  |  |  |  |  |
| Cc1ccc(-c2cc3nc(-c4ccccc4)nc(C(Cl)Cl)n3n2)cc1 | 1.41 | > 50 | 3.31 | 2.19 | 5.32 | 18.6 | > 50 | 2.29 | 6.68 | 2.1 | 0.737 | 36.1 | 1.19 | 0.911 | 1.54 | 1.52 | 3.73 | 0.851 | 1.53 | 0.933 |
| OC1CCC(Oc2cccc3cnc(Nc4ccc5nc[nH]c5c4)nc23)CC1 (stereo unspecified) | > 100 | 5.01 | 30.7 | 0.708 | 6.83 | 47.8 | 0.671 | 16.5 | 8.92 | 7.26 | 0.313 | 1.03 | 0.327 | 0.215 | 0.791 | 3.35 | 0.143 | 0.407 | 1.2 | 0.573 |
| O=C(N=Nc1c(O)[nH]c2ccccc12)c1ccccc1O | > 100 | > 100 | > 100 | > 100 | > 100 | 46.6 |  | > 100 | > 100 | > 100 |  |  |  |  |  |  |  |  |  |  |
| Cn1nnnc1[N-]Cc1ccccc1.[Au+].c1ccc([PH+](c2ccccc2)c2ccccc2)cc1 | 10.6 | 3.39 | 28.4 | 23.2 | 7.23 | 30.3 |  | 4.92 | 7.78 | 7.12 | 4.29 | 1.64 | 14.8 | 8.93 | 2.53 | 16.6 |  | 2.19 | 2.01 | 1.72 |
| ClCCn1cnc2c(SCc3ccccc3)ncnc21 | > 100 | > 100 | > 100 | > 100 | > 100 | > 100 |  | > 100 | > 100 | > 100 | 4.99 | 25.7 | > 100 | 8.77 | 10.9 | 8.3 |  | 3.14 | 14.1 | 6.65 |
| CCOC(=O)c1c2ccc(/C=C/C(=O)OC)ccc-2c(C(=O)OCC)c1N | > 100 | > 100 | > 100 | > 100 | 8.42 | > 100 |  | > 100 | > 100 | > 100 |  |  |  |  |  |  |  |  |  |  |
| Cc1ccc(N2C(=O)C(Cl)=C(Nc3cccc(O)c3)C2=O)cc1Cl | 32.7 | 31.4 | 31.9 |  | 49.8 | 44.2 | 30.4 |  |  | 32.6 | 17.5 | 17.2 | 16.5 |  | 22.4 | 21 | 8.06 |  |  | 17 |
| COc1cccc2c(=O)c3c(sc12)c(NCCCN)nc1ccccc13 | 2.59 | 2.99 | 3.01 | 2.97 | 3.36 |  |  | 2.81 | 4.17 | 3.05 | 1.32 | 1.58 | 1.65 | 1.6 | 1.87 |  |  | 1.3 | 2 | 1.64 |
| O=C1OCC2=Nc3cccc4cccc(c34)N12 | > 100 |  |  | > 100 | > 100 | > 100 | > 100 | > 100 | > 100 | > 100 |  |  |  |  |  |  |  |  |  |  |
| Cc1ccc(-n2c(C)nc3c2C(=O)c2ccccc2C3=O)cc1 | > 100 | 51.5 |  | 86.1 | > 100 | > 100 | > 100 | > 100 | 57 | 56.6 |  |  |  |  |  |  |  |  |  |  |
| c1cc2c(cnc3cscc32)s1 | > 100 | > 100 | > 100 | > 100 | > 100 |  | > 100 | > 100 | > 100 |  |  |  |  |  |  |  |  |  |  |  |
| Cc1cc(O)cc(C)c1/C=C/c1cncc(C(=O)N(C)C)c1 | > 25 | > 25 | > 25 | > 25 | > 25 | > 25 |  | > 25 | > 25 | > 25 | > 25 | > 25 | > 25 | > 25 | > 25 | > 25 |  | > 25 | > 25 | > 25 |
| CC1=C2N3C[C@@H](n4c(=O)n(C)c(=O)n43)C23CCC1n1c(=O)n(C)c(=O)n13 | > 100 | > 100 | > 100 | > 100 | > 100 |  |  | 54.8 | > 100 | > 100 |  |  |  |  |  |  |  |  |  |  |
| COc1ccc(/C=[N+](\[O-])[C@H](COCc2ccccc2)c2ccccc2)cc1 | > 100 | > 100 | > 100 | > 100 | > 100 | > 100 |  | > 100 | > 100 |  |  |  |  |  |  |  |  |  |  |  |
